Measurements taken from PMC9506414, “Novel 2,6,9-Trisubstituted Purines as Potent CDK Inhibitors Alleviating Trastuzumab-Resistance of HER2-Positive Breast Cancers” (Pharmaceuticals, 2022).

What was measured:
TAOK2 = biological target: T1, TAOK2 (Homo sapiens, UniProt Q9UL54); test: Kinome-wide inhibition profiling; assay type: biochemical
T1 construct: purchased Reaction Biology Corp
Procedure: (§1) In vitro CDK12/cyclinK assays for all compounds and in vitro kinome-wide inhibition profiling of 30d at 10 μM were performed by a CRO company (Reaction Biology Corp., San Diego, CA, USA).

HIPK4 = biological target: T2, HIPK4 (Homo sapiens, UniProt Q8NE63); test: Kinome-wide inhibition profiling; assay type: biochemical
T2 construct: purchased Reaction Biology Corp
Procedure: as §1

ASK1 = biological target: T3, ASK1 (Homo sapiens, UniProt Q99683); test: Kinome-wide inhibition profiling; assay type: biochemical
T3 construct: purchased Reaction Biology Corp
Procedure: as §1

YANK2 = biological target: T4, YANK2 (Homo sapiens, UniProt Q9NY57); test: Kinome-wide inhibition profiling; assay type: biochemical
T4 construct: purchased Reaction Biology Corp
Procedure: as §1

CTK = biological target: T5, CTK (Homo sapiens, UniProt P42679); test: Kinome-wide inhibition profiling; assay type: biochemical
T5 construct: purchased Reaction Biology Corp
Procedure: as §1

WNK2 = biological target: T6, WNK2 (Homo sapiens, UniProt Q9Y3S1); test: Kinome-wide inhibition profiling; assay type: biochemical
T6 construct: purchased Reaction Biology Corp
Procedure: as §1

MAP4K4 = biological target: T7, MAP4K4 (Homo sapiens, UniProt O95819); test: Kinome-wide inhibition profiling; assay type: biochemical
T7 construct: purchased Reaction Biology Corp
T7 sequence (O95819 whole entry): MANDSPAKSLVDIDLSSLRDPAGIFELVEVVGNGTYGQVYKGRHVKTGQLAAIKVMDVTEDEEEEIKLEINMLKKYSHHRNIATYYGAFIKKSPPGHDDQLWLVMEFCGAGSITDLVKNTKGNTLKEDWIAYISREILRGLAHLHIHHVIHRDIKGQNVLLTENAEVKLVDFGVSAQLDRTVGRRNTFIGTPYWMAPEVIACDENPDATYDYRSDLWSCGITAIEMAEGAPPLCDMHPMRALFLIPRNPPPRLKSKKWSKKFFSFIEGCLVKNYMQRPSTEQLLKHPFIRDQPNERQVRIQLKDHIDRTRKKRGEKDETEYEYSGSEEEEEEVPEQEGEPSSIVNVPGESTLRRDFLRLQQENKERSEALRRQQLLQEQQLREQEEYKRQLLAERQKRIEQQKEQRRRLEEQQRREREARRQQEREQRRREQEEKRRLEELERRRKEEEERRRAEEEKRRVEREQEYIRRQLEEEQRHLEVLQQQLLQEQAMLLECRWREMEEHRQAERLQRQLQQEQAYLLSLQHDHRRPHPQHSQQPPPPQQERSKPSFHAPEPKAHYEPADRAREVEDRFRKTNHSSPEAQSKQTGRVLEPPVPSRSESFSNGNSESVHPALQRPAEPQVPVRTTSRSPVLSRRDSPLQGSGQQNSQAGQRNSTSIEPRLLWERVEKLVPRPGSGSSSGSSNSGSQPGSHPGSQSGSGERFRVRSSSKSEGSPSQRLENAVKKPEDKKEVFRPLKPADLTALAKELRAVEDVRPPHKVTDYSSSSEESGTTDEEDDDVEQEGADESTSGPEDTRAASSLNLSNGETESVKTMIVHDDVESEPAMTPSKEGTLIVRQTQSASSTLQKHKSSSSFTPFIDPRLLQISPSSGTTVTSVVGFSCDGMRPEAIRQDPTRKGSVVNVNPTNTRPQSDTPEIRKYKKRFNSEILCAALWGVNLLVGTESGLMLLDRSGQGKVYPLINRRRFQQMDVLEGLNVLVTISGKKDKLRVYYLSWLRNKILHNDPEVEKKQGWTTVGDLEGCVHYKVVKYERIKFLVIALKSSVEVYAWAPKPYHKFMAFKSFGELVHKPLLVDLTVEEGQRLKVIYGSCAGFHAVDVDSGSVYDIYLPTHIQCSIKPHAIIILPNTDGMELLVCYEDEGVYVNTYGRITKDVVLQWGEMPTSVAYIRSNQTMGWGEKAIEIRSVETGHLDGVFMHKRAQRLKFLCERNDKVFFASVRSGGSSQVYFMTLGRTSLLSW
Procedure: as §1

NEK3 = biological target: T8, NEK3 (Homo sapiens, UniProt P51956); test: Kinome-wide inhibition profiling; assay type: biochemical
T8 construct: purchased Reaction Biology Corp
Procedure: as §1

MAP4K2 = biological target: T9, MAP4K2 (Homo sapiens, UniProt Q12851); test: Kinome-wide inhibition profiling; assay type: biochemical
T9 construct: purchased Reaction Biology Corp
Procedure: as §1

CLK4 [1] = biological target: T10, CLK4 (Homo sapiens, UniProt Q9HAZ1); test: Kinome-wide inhibition profiling; assay type: biochemical
T10 construct: purchased Reaction Biology Corp
T10 sequence (Q9HAZ1 whole entry): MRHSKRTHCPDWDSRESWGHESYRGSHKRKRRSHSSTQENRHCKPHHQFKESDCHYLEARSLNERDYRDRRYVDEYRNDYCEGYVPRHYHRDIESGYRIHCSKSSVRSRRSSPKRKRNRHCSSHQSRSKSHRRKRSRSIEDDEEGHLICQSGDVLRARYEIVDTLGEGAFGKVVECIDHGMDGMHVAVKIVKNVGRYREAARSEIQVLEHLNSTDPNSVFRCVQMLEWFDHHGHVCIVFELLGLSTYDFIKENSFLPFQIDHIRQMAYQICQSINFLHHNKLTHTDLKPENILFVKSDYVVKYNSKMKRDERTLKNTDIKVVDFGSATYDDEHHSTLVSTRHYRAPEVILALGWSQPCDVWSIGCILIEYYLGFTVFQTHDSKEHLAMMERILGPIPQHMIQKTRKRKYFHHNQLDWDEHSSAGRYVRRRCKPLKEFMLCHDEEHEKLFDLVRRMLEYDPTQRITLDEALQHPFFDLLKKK
Procedure: as §1

DAPK3 = biological target: T11, DAPK3 (Homo sapiens, UniProt O43293); test: Kinome-wide inhibition profiling; assay type: biochemical
T11 construct: purchased Reaction Biology Corp
Procedure: as §1

RIPK2 = biological target: T12, RIPK2 (Homo sapiens, UniProt O43353); test: Kinome-wide inhibition profiling; assay type: biochemical
T12 construct: purchased Reaction Biology Corp
T12 sequence (O43353 whole entry): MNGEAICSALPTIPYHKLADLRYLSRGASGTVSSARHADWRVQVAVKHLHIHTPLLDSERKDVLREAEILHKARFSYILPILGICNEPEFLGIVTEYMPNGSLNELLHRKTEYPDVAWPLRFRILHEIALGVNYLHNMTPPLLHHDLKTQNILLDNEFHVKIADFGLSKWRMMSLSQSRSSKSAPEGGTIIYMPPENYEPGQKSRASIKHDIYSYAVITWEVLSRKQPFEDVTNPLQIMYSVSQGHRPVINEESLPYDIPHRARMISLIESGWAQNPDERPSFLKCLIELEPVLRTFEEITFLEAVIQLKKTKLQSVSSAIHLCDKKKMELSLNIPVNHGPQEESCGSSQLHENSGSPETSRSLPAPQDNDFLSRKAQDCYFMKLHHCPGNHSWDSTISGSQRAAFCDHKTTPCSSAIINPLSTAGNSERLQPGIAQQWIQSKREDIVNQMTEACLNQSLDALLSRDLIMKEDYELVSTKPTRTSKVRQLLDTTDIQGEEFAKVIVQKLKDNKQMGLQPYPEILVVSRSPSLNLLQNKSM
Procedure: as §1

ICK = biological target: T13, ICK (Homo sapiens, UniProt Q9UPZ9); test: Kinome-wide inhibition profiling; assay type: biochemical
T13 construct: purchased Reaction Biology Corp
T13 sequence (Q9UPZ9 whole entry): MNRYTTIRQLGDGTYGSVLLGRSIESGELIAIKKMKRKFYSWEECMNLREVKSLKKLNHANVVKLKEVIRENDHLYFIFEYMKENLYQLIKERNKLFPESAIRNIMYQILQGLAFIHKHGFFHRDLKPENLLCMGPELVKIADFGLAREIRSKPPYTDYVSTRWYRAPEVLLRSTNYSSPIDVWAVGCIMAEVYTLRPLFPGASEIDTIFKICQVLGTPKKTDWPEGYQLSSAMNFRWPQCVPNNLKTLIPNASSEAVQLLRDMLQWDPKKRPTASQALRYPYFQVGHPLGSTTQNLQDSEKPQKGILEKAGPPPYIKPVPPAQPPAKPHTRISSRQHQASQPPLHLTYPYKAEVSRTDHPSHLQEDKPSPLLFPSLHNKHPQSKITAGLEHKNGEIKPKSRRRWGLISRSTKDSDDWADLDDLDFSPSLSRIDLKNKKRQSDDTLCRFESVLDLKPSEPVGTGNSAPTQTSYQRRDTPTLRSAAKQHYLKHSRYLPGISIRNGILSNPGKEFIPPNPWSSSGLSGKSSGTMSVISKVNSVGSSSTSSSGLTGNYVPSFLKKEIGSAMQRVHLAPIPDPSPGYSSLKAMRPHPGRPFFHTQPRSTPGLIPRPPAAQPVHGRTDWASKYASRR
Procedure: as §1

RET = biological target: T14, RET (Homo sapiens, UniProt P07949); test: Kinome-wide inhibition profiling; assay type: biochemical
T14 construct: purchased Reaction Biology Corp
Procedure: as §1

LRRK2 = biological target: T15, LRRK2 (Homo sapiens, UniProt Q5S007); test: Kinome-wide inhibition profiling; assay type: biochemical
T15 construct: purchased Reaction Biology Corp
Procedure: as §1

ULK1 = biological target: T16, ULK1 (Homo sapiens, UniProt O75385); test: Kinome-wide inhibition profiling; assay type: biochemical
T16 construct: purchased Reaction Biology Corp
T16 sequence (O75385 whole entry): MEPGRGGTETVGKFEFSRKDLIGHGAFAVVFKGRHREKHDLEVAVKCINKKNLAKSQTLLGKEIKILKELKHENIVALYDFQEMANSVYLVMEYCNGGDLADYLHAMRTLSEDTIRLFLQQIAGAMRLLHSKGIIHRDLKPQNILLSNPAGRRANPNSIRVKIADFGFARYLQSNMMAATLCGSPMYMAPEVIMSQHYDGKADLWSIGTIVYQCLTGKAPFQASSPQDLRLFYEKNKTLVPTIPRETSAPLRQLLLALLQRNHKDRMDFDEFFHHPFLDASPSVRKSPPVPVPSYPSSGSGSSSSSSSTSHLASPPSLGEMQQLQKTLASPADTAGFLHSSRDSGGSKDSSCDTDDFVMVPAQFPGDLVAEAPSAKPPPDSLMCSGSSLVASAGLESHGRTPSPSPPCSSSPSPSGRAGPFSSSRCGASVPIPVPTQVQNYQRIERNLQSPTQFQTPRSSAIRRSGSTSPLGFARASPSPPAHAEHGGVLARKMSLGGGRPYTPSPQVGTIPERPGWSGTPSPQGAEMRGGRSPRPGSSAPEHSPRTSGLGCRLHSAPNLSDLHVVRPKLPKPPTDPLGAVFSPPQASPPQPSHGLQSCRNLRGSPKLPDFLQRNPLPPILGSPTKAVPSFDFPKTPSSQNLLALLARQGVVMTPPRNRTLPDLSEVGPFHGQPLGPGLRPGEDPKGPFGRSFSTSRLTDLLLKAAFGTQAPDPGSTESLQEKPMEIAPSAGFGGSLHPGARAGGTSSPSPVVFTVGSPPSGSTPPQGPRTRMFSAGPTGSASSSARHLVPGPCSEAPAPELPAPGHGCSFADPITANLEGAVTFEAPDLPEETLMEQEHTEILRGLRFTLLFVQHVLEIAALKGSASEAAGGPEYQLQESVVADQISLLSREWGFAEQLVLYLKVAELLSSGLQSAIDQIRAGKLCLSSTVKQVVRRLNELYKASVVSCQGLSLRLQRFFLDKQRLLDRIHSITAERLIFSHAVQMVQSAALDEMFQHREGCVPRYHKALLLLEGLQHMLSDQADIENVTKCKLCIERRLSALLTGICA
Procedure: as §1

ERK2 = biological target: T17, ERK2 (Homo sapiens, UniProt P28482); test: Kinome-wide inhibition profiling; assay type: biochemical
T17 construct: purchased Reaction Biology Corp
T17 sequence (P28482 whole entry): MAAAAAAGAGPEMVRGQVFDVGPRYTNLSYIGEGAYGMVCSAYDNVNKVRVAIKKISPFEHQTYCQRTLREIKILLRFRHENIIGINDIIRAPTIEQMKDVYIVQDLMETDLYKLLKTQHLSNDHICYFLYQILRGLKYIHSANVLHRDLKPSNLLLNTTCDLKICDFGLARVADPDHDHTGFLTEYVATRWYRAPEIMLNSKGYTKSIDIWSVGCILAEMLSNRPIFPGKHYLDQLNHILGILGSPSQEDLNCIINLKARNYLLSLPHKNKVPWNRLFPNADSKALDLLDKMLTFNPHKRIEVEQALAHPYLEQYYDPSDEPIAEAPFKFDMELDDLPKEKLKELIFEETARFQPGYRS
Procedure: as §1

PRKCI = biological target: T18, PRKCI (Homo sapiens, UniProt P41743); test: Kinome-wide inhibition profiling; assay type: biochemical
T18 construct: purchased Reaction Biology Corp
Procedure: as §1

MRCKa = biological target: T19, MRCKa (Homo sapiens, UniProt Q5VT25); test: Kinome-wide inhibition profiling; assay type: biochemical
T19 construct: purchased Reaction Biology Corp
Procedure: as §1

MRCKb = biological target: T20, MRCKb (Homo sapiens, UniProt Q9Y5S2); test: Kinome-wide inhibition profiling; assay type: biochemical
T20 construct: purchased Reaction Biology Corp
Procedure: as §1

PRKD1 = biological target: T21, PRKD1 (Homo sapiens, UniProt Q15139); test: Kinome-wide inhibition profiling; assay type: biochemical
T21 construct: purchased Reaction Biology Corp
Procedure: as §1

WEE1 = biological target: T22, WEE1 (Homo sapiens, UniProt P30291); test: Kinome-wide inhibition profiling; assay type: biochemical
T22 construct: purchased Reaction Biology Corp
Procedure: as §1

p70S6Kb/RPS6KB2 = biological target: T23, p70S6Kb/RPS6KB2 (Homo sapiens, UniProt Q9UBS0); test: Kinome-wide inhibition profiling; assay type: biochemical
T23 construct: purchased Reaction Biology Corp
Procedure: as §1

RSK2 = biological target: T24, RSK2 (Homo sapiens, UniProt P51812); test: Kinome-wide inhibition profiling; assay type: biochemical
T24 construct: purchased Reaction Biology Corp
T24 sequence (P51812 whole entry): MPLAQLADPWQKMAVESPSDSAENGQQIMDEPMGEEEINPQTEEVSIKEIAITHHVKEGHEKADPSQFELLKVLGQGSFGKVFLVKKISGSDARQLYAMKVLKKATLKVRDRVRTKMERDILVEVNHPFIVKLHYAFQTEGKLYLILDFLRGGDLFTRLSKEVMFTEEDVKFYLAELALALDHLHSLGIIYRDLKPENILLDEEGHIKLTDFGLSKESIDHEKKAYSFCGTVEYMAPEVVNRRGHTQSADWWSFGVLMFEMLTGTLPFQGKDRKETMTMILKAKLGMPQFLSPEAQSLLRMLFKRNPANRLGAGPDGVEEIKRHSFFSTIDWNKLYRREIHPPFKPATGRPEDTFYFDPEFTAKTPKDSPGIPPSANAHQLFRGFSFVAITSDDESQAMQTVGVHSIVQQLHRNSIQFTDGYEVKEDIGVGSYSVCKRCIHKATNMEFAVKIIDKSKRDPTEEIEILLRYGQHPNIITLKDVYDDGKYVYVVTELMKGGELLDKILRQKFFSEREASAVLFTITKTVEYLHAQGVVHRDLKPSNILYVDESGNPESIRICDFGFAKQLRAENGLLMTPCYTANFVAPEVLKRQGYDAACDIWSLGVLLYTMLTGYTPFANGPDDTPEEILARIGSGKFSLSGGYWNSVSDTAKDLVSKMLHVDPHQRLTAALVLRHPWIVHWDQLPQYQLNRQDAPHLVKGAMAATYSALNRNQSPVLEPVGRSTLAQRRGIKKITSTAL
Procedure: as §1

BTK = biological target: T25, BTK (Homo sapiens, UniProt Q06187); test: Kinome-wide inhibition profiling; assay type: biochemical
T25 construct: purchased Reaction Biology Corp
Procedure: as §1

MAPKAPK3 = biological target: T26, MAPKAPK3 (Homo sapiens, UniProt Q16644); test: Kinome-wide inhibition profiling; assay type: biochemical
T26 construct: purchased Reaction Biology Corp
Procedure: as §1

NEK2 = biological target: T27, NEK2 (Homo sapiens, UniProt P51955); test: Kinome-wide inhibition profiling; assay type: biochemical
T27 construct: purchased Reaction Biology Corp
Procedure: as §1

MEK1 = biological target: T28, MEK1 (Homo sapiens, UniProt Q02750); test: Kinome-wide inhibition profiling; assay type: biochemical
T28 construct: purchased Reaction Biology Corp
Procedure: as §1

RAF1 = biological target: T29, RAF1 (Homo sapiens, UniProt P04049); test: Kinome-wide inhibition profiling; assay type: biochemical
T29 construct: purchased Reaction Biology Corp
Procedure: as §1

CDK4/cyclinD3 = biological target: T30, CDK4/cyclinD3 (Homo sapiens, UniProt P11802); test: Kinome-wide inhibition profiling; assay type: biochemical
T30 construct: purchased Reaction Biology Corp
Procedure: as §1

CHEK2 = biological target: T31, CHEK2 (Homo sapiens, UniProt O96017); test: Kinome-wide inhibition profiling; assay type: biochemical
T31 construct: purchased Reaction Biology Corp
Procedure: as §1

DDR1 = biological target: T32, DDR1 (Homo sapiens, UniProt Q08345); test: Kinome-wide inhibition profiling; assay type: biochemical
T32 construct: purchased Reaction Biology Corp
Procedure: as §1

TYK2 = biological target: T33, TYK2 (Homo sapiens, UniProt P29597); test: Kinome-wide inhibition profiling; assay type: biochemical
T33 construct: purchased Reaction Biology Corp
Procedure: as §1

CIT = biological target: T34, CIT (Homo sapiens, UniProt O14578); test: Kinome-wide inhibition profiling; assay type: biochemical
T34 construct: purchased Reaction Biology Corp
Procedure: as §1

FGFR4 = biological target: T35, FGFR4 (Homo sapiens, UniProt P22455); test: Kinome-wide inhibition profiling; assay type: biochemical
T35 construct: purchased Reaction Biology Corp
Procedure: as §1

CDKL5 = tested on: CDKL5; design: method as in HMS LINCS database; settings: 10 μM, ref HMS LINCS database; cited from earlier work
CLK4 [2] = biological target: T10, CLK4; design: method as in HMS LINCS database; settings: 10 μM, ref HMS LINCS database; cited from earlier work
PFPK5(P.falciparum) = tested on: PFPK5(P.falciparum); design: method as in HMS LINCS database; settings: 10 μM, ref HMS LINCS database; cited from earlier work
TLK1 = biological target: T36, TLK1 (Homo sapiens, UniProt Q9UKI8); design: method as in HMS LINCS database; settings: 10 μM, ref HMS LINCS database; cited from earlier work
T36 construct: purchased Reaction Biology Corp

CDK4-cyclinD3 = tested on: CDK4-cyclinD3; design: method as in HMS LINCS database; settings: 10 μM, ref HMS LINCS database; cited from earlier work
DYRK1B = biological target: T37, DYRK1B (Homo sapiens, UniProt Q9Y463); design: method as in HMS LINCS database; settings: 10 μM, ref HMS LINCS database; cited from earlier work
T37 construct: purchased Reaction Biology Corp

CDKL2 = tested on: CDKL2; design: method as in HMS LINCS database; settings: 10 μM, ref HMS LINCS database; cited from earlier work
PFTAIRE2 = tested on: PFTAIRE2; design: method as in HMS LINCS database; settings: 10 μM, ref HMS LINCS database; cited from earlier work

Structure (SMILES): CCn1cnc2c(NCc3ccc(-c4ccccn4)nc3)nc(-c3ccc(N)nc3)nc21 [Compound 30d, N-([2,2′-Bipyridin]-5-ylmethyl)-2-(6-aminopyridin-3-yl)-9-ethyl-9H-purin-6-amine]
- remaining activity at 10 µM (TAOK2): 23.8%
- remaining activity at 10 µM (HIPK4): 43.9%
- remaining activity at 10 µM (ASK1): 18.4%
- remaining activity at 10 µM (YANK2): 57.6%
- remaining activity at 10 µM (CTK): 87.6%
- remaining activity at 10 µM (WNK2): 108%
- remaining activity at 10 µM (MAP4K4): 103%
- remaining activity at 10 µM (NEK3): 86.6%
- remaining activity at 10 µM (MAP4K2): 58.4%
- remaining activity at 10 µM (CLK4 [1]): 28.7%
- remaining activity at 10 µM (DAPK3): 80.8%
- remaining activity at 10 µM (RIPK2): 66.1%
- remaining activity at 10 µM (ICK): 39.6%
- remaining activity at 10 µM (RET): 79.4%
- remaining activity at 10 µM (LRRK2): 17.7%
- remaining activity at 10 µM (ULK1): 70.3%
- remaining activity at 10 µM (ERK2): 10.6%
- remaining activity at 10 µM (PRKCI): 86.1%
- remaining activity at 10 µM (MRCKa): 96.6%
- remaining activity at 10 µM (MRCKb): 99.3%
- remaining activity at 10 µM (PRKD1): 70.3%
- remaining activity at 10 µM (WEE1): 90.2%
- remaining activity at 10 µM (p70S6Kb/RPS6KB2): 92.2%
- remaining activity at 10 µM (RSK2): 69.4%
- remaining activity at 10 µM (BTK): 103%
- remaining activity at 10 µM (MAPKAPK3): 100%
- remaining activity at 10 µM (NEK2): 91.1%
- remaining activity at 10 µM (MEK1): 149%
- remaining activity at 10 µM (RAF1): 68.6%
- remaining activity at 10 µM (CDK4/cyclinD3): 28.6%
- remaining activity at 10 µM (CHEK2): 7.4%
- remaining activity at 10 µM (DDR1): 50.2%
- remaining activity at 10 µM (TYK2): 90.7%
- remaining activity at 10 µM (CIT): 97.9%
- remaining activity at 10 µM (FGFR4): 87.4%

Structure (SMILES): CCc1cnn2c(NCc3ccc[n+]([O-])c3)cc(N3CCCC[C@H]3CCO)nc12 [Dinaciclib]
- % control (CDKL5): 1.6%
- % control (CLK4 [2]): 5.1%
- % control (PFPK5(P.falciparum)): 1.2%
- % control (TLK1): 0.9%
- % control (CDK4-cyclinD3): 2.0%
- % control (DYRK1B): 6.0%
- % control (CDKL2): 10%
- % control (PFTAIRE2): 0.4%
